According to patent publication US20110256557A1, “IDENTIFYING PARATHYROID HORMONE AGONISTS AND ANTAGONISTS” (DISCOVERYBIOMED, INC., priority 2008, published 2011):

What was measured:
[1] = tested on: TCF/LEF luciferase reporter; test: High-throughput screen validation, TCF/LEF luciferase reporter in osteosarcoma cell line; type: cell-based
Protocol: Osteosarcoma cells were plated in a 96 well plate. The cells were transiently transfected with the TCF/LEF luciferase reporter using LipofectAMINE PLUS (Invitrogen; Carlsbad, Calif.). The cells were incubated overnight at 37° C. in OptiMEM-1 serum-free medium with the transfection reagents. The cells were washed and serum-containing medium was added to the cells for 8 hours. The serum-containing medium was replaced with serum-free medium and the cells were stimulated overnight with PTH and WNT3a. Supernatant from the stimulated cells was collected for detection of osteosclerostin, and the cells were subjected to a luciferase assay as previously described (Wan et al., Am. J. Pathol. 166:1379-92 (2005)).
To determine agonists and antagonists of the additive signaling of the PTH receptor and the WNT receptor, (as well as any co-receptors) in bone cells, a high-throughput screen is designed. […] An osteosarcoma cell line is transiently transfected with a TCF/LEF luciferase reporter. The cells are treated with WNT3a and PTH and luciferase activity is determined (FIG. 46).

LRP6 = LRP6 phosphorylation at PPPSP motifs, western blotting with Ab1490, UMR-106 cells; type: cell-based, rat; conditions: UMR-106 cells, endogenous LRP6, Ab1490
Protocol: (§1) Cells were harvested in cavitation buffer (5 mM HEPES, pH 7.4, 3 mM MgCl2, 1 mM EGTA, 250 mM sucrose) containing protease and phosphatase inhibitors and homogenized by nitrogen cavitation (200 p.s.i., for 5 minutes) in a cell disruption bomb (Parr Instrument Co.; Moline, Ill.). The cell homogenate was centrifuged twice at 700 g for 10 minutes to pellet the nuclei. The supernatant was further centrifuged at 100,000 g (Beckman SW50.1 rotor) for 1 hour to separate the membrane and cytosol fractions, and the resulting membrane pellet was washed three times with cavitation buffer before use in the assays (Zhang et al., Biochem. J. 343:541-9 (1999)). Immunoprecipitation and Western blot analysis of cell lysates were performed as described previously (Wan et al., Am. J. Pathol. 166:1379-92 (2005)).
As phosphorylation of LRP6 at the PPPSP motifs plays a crucial role in activating downstream β-catenin signaling by Wnt, whether PTH induces phosphorylation of LRP6 at PPPSP motifs (Mao et al., Mol. Cell. 7:801-9 (2001); Tamai et al., Mol. Cell. 13:149-56 (2004); Davidson et al., Nature 438:867-72 (2005); Zeng et al., Nature 438:873-7 (2005)). Immunoprecipitated LRP6 from extracts of PTH-treated UMR-106 cells were monitored for their phosphorylation, by western blotting, with an antibody that recognizes phosphorylated PPPSP motifs (Ab1490) (Tamai et al., Mol. Cell. 13:149-56 (2004)). […] Phosphorylation of PPPSP motifs is required for axin recruitment from cytoplasm to LRP6 at cell membrane. […] Fz8CRD, a competitive inhibitor of the Wnt receptor Fz (Hsieh et al., Proc. Natl. Acad. Sci. USA 96:3546-55 (1999)), was used to exclude the possibility that these PTH effects are mediated through promotion of Wnts production or sensitization of Wnt-stimulated signaling. […] In contrast, LRP6N blocked PTH-stimulated LRP6 phosphorylation (FIG. 33).

β-catenin = test: Western blot of cytosolic β-catenin in HEK 293 cells; type: cell-based; conditions: HEK 293 cells; concentration- and time-dependent
Protocol: as §1

axin1 = test: Axin1 recruitment to cell membrane, cell fractionation assay in mouse primary preosteoblasts; type: cell-based
Protocol: Osteoblasts were isolated by digestion of calvaria of newborn mice as described (Wang et al., J. Clin. Invest. 117:1616-26 (2007)). Briefly, calvaria were incubated with 10 ml of digestion solution containing 1.8 mg/ml of collagenase type I (Worthington Biochemical Corp.; Lakewood, N.J.) for 15 minutes at 37° C. under constant agitation. The supernatant was then harvested, replaced with fresh collagenase and the digestion repeated an additional 4 times. Digestion solutions containing the osteoblasts were pooled together. After centrifugation, osteoblasts were obtained and cultured in α-Minimal Essential Media (MEM) containing 10% FBS and 1% penicillin/streptomycin at 37° C. in a humidified incubator supplied with 5% CO2.
as §1, with “Immunoprecipitation and Western blot analysis of cell lysates were performed as described previously (Wan et al., Am. J. Pathol. 166:1379-92 (2005)).” left out

Parathyroid hormone [PTH]
stimulation of the TCF/LEF luciferase reporter, treatment alone ([1]; 96-well plate): does not stimulate
effect on WNT stimulation of the TCF/LEF luciferase reporter ([1]; PTH and WNT3a treatment): potentiates
phosphorylation of LRP6 at the PPPSP motifs (LRP6): rapidly induced
levels of β-catenin in the cytosol (β-catenin): enhanced
axin1 level on cell membrane (axin1): increased
